Where a SMILES comes first, the peptide text is derived from it. Where no end group is shown, it is not given here. Eth = ethionine
Legend:
PB1X-9B (pPTF4) [1] = test: Growth on peptides, mutant transformed with plant gene ATPTR2A; type: cell-based, Saccharomyces cerevisiae; conditions: PBIX-9B (pPTF4); 80 μM peptide in SC medium, 30° C., 72 hrs
Experimental: (§1) In addition, untransformed PB1X-9B, PB1X-9B transformed with plasmid pJP9 encoding the above-described yeast peptide transport gene, PB1X-2AΔ and PB1X-2A, the ptr2^+ parental strain to PB1X-2AΔ strain, were also assayed. Each strain was grown overnight in SC media plus uracil (non-transformed) or minus uracil (transformed) plus amino acids to stationary phase and harvested by centrifugation. Cells were then washed twice with sterile dH2 O and resuspended at 5×10^6 cells/ml. 5 μl of each suspension was applied as a small spot to a 2 ml volume of solid media in a 24 well plate. All peptides were suspended in sterile, deionized water and added to an equal volume of SC medium plus the appropriate amino acids and uracil when required. The medium for each assay thus consisted of SC medium plus or minus uracil supplemented with 80 μM of a specific peptide and auxotrophic requirements minus the amino acid components of the added peptide. The plates were incubated at 30° C. for 72 hrs. and then scored for growth.

PB1X-9B [2] = test: Growth on peptides as amino acid source, peptide transport mutant; type: cell-based, Saccharomyces cerevisiae; conditions: PBIX-9B; 80 μM peptide in SC medium, 30° C., 72 hrs
Experimental: as §1

PB1X-9B (pJP9) [3] = test: Growth on peptides, mutant transformed with yeast peptide transport gene; type: cell-based, Saccharomyces cerevisiae; conditions: for growth on peptide: PBIX-9B (pJP9), 80 μM peptide in SC medium, 30° C., 72 hrs; for growth on peptide (in words): PB1X-9B transformed with pJP9
Experimental: as §1

PB1X-2AΔ (pDTF1) = test: Growth on peptides, deletion strain transformed with ATPTR2B; type: cell-based, Saccharomyces cerevisiae; set-up: key: +: Growth was scored as uniform colony formation; -: negative controls which showed no growth; conditions: PBIX-2AΔ (pDTF1); 80 μM peptide in SC medium, 30° C., 72 hrs
Experimental: as §1, with “Thus, the peptide transport mutant PB1X-9B and deletion strain PB1X-2AΔ transformed with plasmids pPTF4 (ATPTR2A) or pDTF1 (ATPTR2B) were grown on various peptides to assess the specificity of the plant peptide transporter. In” for “In”

[4] = system: S. cerevisiae strains tested; test: Toxic peptide disk assay, statements covering several strains; type: cell-based, Saccharomyces cerevisiae; conditions: for sensitivity to toxic peptide: all strains tested
Experimental: (§2) Since ptr mutants are deficient in peptide transport, they are unable to take up toxic peptides. This inability renders such mutants resistant to the toxic effect of the peptides. In order to determine whether the polynucleotides of the present invention could restore toxic peptide sensitivity to ptr2 mutants, the sensitivity of plasmid-transformed cells was determined. Sensitivity to toxic amino acids and peptides was measured as described by Island, M. D. et al. (J. Bacteriol. 169:2132-2136 (1987)). Briefly, a filter disk containing 0.38 μmoles of the toxic compound was placed on a lawn containing 5×10^6 cells and the plate incubated at 30° C. for 1 to 2 days. Resulting halos were measured across their diameter. The toxic dipeptides Leu-Eth, Ala-Eth, Leu-F-Phe and Oxalysine were synthesized by standard solution phase techniques (Naider, F. et al., J. Biol. Chem. 249:9-20 (1974). The results of this experiment are shown in Table 2 (values are the mean of the diameters of the observed zone of inhibition in millimeters±standard error of the mean of at least two independent experiments).

PB1X-9B (pJP9) [5] = test: Toxic peptide disk assay, mutant with yeast peptide transport gene; type: cell-based, Saccharomyces cerevisiae; conditions: disk with 0.38 μmoles, lawn of 5×10^6 cells, 30° C., 1 to 2 days, mean ± standard error
Experimental: as §2

PB1X-9B (pPTF4) [6] = test: Toxic peptide disk assay, mutant with plant gene ATPTR2A; type: cell-based, Saccharomyces cerevisiae; conditions: for diameter of zone of inhibition: disk with 0.38 μmoles, lawn of 5×10^6 cells, 30° C., 1 to 2 days, mean ± standard error
Experimental: as §2

S288C = test: Toxic peptide disk assay, wild type; type: cell-based, Saccharomyces cerevisiae; conditions: disk with 0.38 μmoles, lawn of 5×10^6 cells, 30° C., 1 to 2 days, mean ± standard error
Experimental: as §2

PB1X-9B [7] = test: Toxic peptide disk assay, peptide transport mutant; type: cell-based, Saccharomyces cerevisiae; conditions: for diameter of zone of inhibition: disk with 0.38 μmoles, lawn of 5×10^6 cells, 30° C., 1 to 2 days, mean ± standard error
Experimental: as §2

ATPTR2Ap = test: Uptake of L-leucyl-L-[3H]leucine and competition, PB1X-9B[pPTF4]
Experimental: The kinetics of ATPTR2A-mediated transport of peptides in yeast was evaluated by transforming pPTF4 into the S. cerevisiae peptide transport mutant, PB1X-9B and measuring the uptake of tritiated Leu-Leu dipeptide.
L-leucyl-L [^3 H]leucine trifluoroacetic acid (TFA) was synthesized by standard solution phase techniques (Naider, F. et al., J. Biol. Chem. 249:9-20 (1974)). Uptake of L-leucyl-L-[H]leucine was performed as by Island, M. D. et al (J. Bacteriol. 169:2132-2136 (1987)), with the following modifications. Cells were grown to late log phase (26×10^7 cells/ml) overnight in SC with 2% glucose, 1 mg/ml allantoin plus amino acids to supplement auxotrophic markers. To induce peptide transport. 5-15 ml from this culture was added to 100 ml fresh medium such that the density was 3.0×10^6 cells/ml. This culture was allowed to grow (approx. 2 hrs.) to a density of 6.0×10^6 cells/ml and then harvested by centrifugation. The pelleted cells were washed twice with 10 ml cold dH2 O and suspended in cold 2% glucose to a final concentration of 2×10^8 cells/ml and incubated at 30° C. for 15 min. 500 μl of cells were then added to an equal volume of reaction mixture (30° C.) and incubated at 30°-C. At 20, 40, 60, 90, and 120 sec. intervals, 190 μl portions were removed, filtered over filters (pore size, 0.45 μm; GN-6; Gelman Sciences, Inc., Ann Arbor, Mich.) and washed 2 times with 5 ml cold, sterile dH2 O and once with 5 ml dH2 O at room temperatures. Filters were placed in scintillation vials with 5 ml of Budget-Solve scintillation cocktail (Research Products International Corp., Mount Prospect, Ill.) and counted (liquid scintillation counter; LS-7000; Beckman Instruments, Inc., Fullerton, Calif.). The final concentration of the components in the uptake assay was 1% glucose, 40 mM sodium citrate-potassium phosphate buffer (pH 5.5), and 1.5×105 M L-leucyl-L-[^3 H]leucine (specific activity, 10 mCi/mmole). Uptake is expressed as nanomoles per mg dry weight.

A. thaliana seeds = test: Seed germination with toxic peptides (minimum inhibitory concentration); type: in vivo, Arabidopsis thaliana; conditions: seeds exposed to the toxic compound
Experimental: Thus, A. thaliana seeds and seedlings were exposed to Ethionine, Ala-Eth, Leu-Eth, Leu-fluorophenylalanine or oxalysine containing peptides, and the minimum inhibitory concentrations (MIC) were determined for each of the toxic compounds.
To measure the minimum inhibitory concentration of the toxic peptides, 10 to 15 A. thaliara seeds were place on solid Arabidopsis growth media with decreasing concentrations of toxic peptide. The seeds were incubated for 4 days in the dark and then scored for germination.

A. thaliana seedlings = test: Root assay, toxic peptide plus competitor peptide; type: in vivo, Arabidopsis thaliana
Experimental: Approximately 15 A. thaliana seeds were placed in a row at one end of 10 cm plate containing 20 ml of Arabidopsis growth media (Kranz and Kirchheim 1987). The seeds were incubated 3-5 days in the light with the plate set in an upright position. When the roots were approximately 1-2 cm long, sterile paper filter disks were placed immediately in front of the root tips on the right and left side of the plate 2 cm from the edge of the plate. A line was drawn across the plate using the top of the disks as a guide marking zero growth. 5 μl of toxic amino acid analog, toxic peptide, or toxic peptide plus competitor was added to one disk while H2 O was place on the other disk. The plates were incubated for an additional 3-5 days. The average length of the roots was measured from the line and the results expressed as a percentage of control root growth.

[8] = PB1X-9B[pPTF4], pH 5.5, dileucine and leucine at 100-fold

Compound: Ala-Ala-Leu: tripeptide growth substrate (AAL)
- growth on peptide (PB1X-9B (pPTF4) [1]): +
- growth on peptide (PB1X-9B [2]): -
- growth on peptide (PB1X-9B (pJP9) [3]): +

Compound: CC(C)C[C@H](NC(=O)[C@@H](N)Cc1c[nH]cn1)C(=O)O [His-Leu] (H-His-Leu-OH)
- growth on peptide (PB1X-9B (pPTF4) [1]): +
- growth on peptide (PB1X-9B [2]): -
- growth on peptide (PB1X-9B (pJP9) [3]): +

Compound: Thr-Pro-Arg-Lys: SEQ ID NO:7 (TPRK)
- growth on peptide (PB1X-9B (pPTF4) [1]): -
- growth on peptide (PB1X-9B [2]): -
- growth on peptide (PB1X-2AΔ (pDTF1)): -
- growth on peptide (in words) (PB1X-9B (pJP9) [3]): showed growth on all peptides except
- growth on peptide (PB1X-9B (pJP9) [3]): -

Compound: Trp-His-Trp-Leu-Gln-Leu: SEQ ID NO:9 (WHWLQL)
- growth on peptide (PB1X-9B (pPTF4) [1]): -
- growth on peptide (PB1X-9B [2]): -
- growth on peptide (PB1X-2AΔ (pDTF1)): -
- growth on peptide (in words) (PB1X-9B (pJP9) [3]): showed growth on all peptides except
- growth on peptide (PB1X-9B (pJP9) [3]): -

Compound: Lys-Leu-Ala-Eth: ethionine-containing peptide of four residues
- sensitivity to toxic peptide [4]: None of the strains tested were sensitive
- diameter of zone of inhibition (PB1X-9B (pJP9) [5]): 0 millimeters
- diameter of zone of inhibition (PB1X-9B (pPTF4) [6]): 0 millimeters
- diameter of zone of inhibition (S288C): 0 millimeters
- diameter of zone of inhibition (PB1X-9B [7]): 0 millimeters

Compound: Gly-Leu-Gly-Leu: SEQ ID NO:6 (GLGL)
- growth on peptide (PB1X-9B (pPTF4) [1]): -
- growth on peptide (PB1X-9B [2]): -
- growth on peptide (in words) (PB1X-9B (pJP9) [3]): showed growth on all peptides except
- growth on peptide (PB1X-9B (pJP9) [3]): -

Compound: Lys-Leu-Leu-Leu-Eth: ethionine-containing peptide, SEQ ID NO:14 (KLLL-Eth)
- sensitivity to toxic peptide [4]: None of the strains tested were sensitive
- diameter of zone of inhibition (PB1X-9B (pJP9) [5]): 0 millimeters
- diameter of zone of inhibition (PB1X-9B (pPTF4) [6]): 0 millimeters
- diameter of zone of inhibition (S288C): 0 millimeters
- diameter of zone of inhibition (PB1X-9B [7]): 0 millimeters

Compound: CC(C)C[C@H](N)C(=O)O [leucine]
- competition for uptake of [3H]-dileucine (ATPTR2Ap; 3 h): no effect
- competition for uptake of [3H]-dileucine (ATPTR2Ap; [8]): did not reduce uptake

Compound: Lys-Leu-Leu-Ala-Eth: ethionine-containing peptide, SEQ ID NO:13 (KLLA-Eth)
- sensitivity to toxic peptide [4]: None of the strains tested were sensitive
- diameter of zone of inhibition (PB1X-9B (pJP9) [5]): 0 millimeters
- diameter of zone of inhibition (PB1X-9B (pPTF4) [6]): 0 millimeters
- diameter of zone of inhibition (S288C): 0 millimeters
- diameter of zone of inhibition (PB1X-9B [7]): 0 millimeters

Compound: CC(C)C[C@H](NC(=O)[C@@H](N)CC(C)C)C(=O)O [Leu-Leu, L-leucyl-L-leucine]
- competition for uptake of [3H]-dileucine (ATPTR2Ap; [8]): inhibited
- growth on peptide (PB1X-9B (pPTF4) [1]): +
- growth on peptide (PB1X-9B [2]): -
- growth on peptide (PB1X-9B (pJP9) [3]): +

Compound: fluorophenylalanine [F-Phe]
- sensitivity to toxic compound ([4]; wild type (S288C) and transformants): less sensitive
- diameter of zone of inhibition (PB1X-9B (pJP9) [5]): 20.0 ± 0.0 millimeters
- sensitivity or resistance to toxic compound (PB1X-9B (pPTF4) [6]): sensitive
- diameter of zone of inhibition (PB1X-9B (pPTF4) [6]): 19.5 ± 0.5 millimeters
- diameter of zone of inhibition (S288C): 25.0 ± 4.0 millimeters
- sensitivity or resistance to toxic compound (PB1X-9B [7]): sensitive
- diameter of zone of inhibition (PB1X-9B [7]): 14.0 ± 1.0 millimeters

Compound: NCCOC[C@H](N)C(=O)O [Oxa-Lys, oxalysine]
- root length at which growth was arrested (A. thaliana seeds): 1-2 mm

Compound: CSCC[C@H](N)C(=O)O [Met]
- reversal of toxicity by competitor (in words) (A. thaliana seedlings; toxic peptide Ala-Eth): unable to reverse the inhibition
- root growth with toxic peptide plus competitor (A. thaliana seedlings; toxic peptide Ala-Eth): 0 percentage of control root gro
- reversal of toxicity by competitor (in words) (A. thaliana seedlings; toxic peptide Leu-Eth): unable to reverse the inhibition
- root growth with toxic peptide plus competitor (A. thaliana seedlings; toxic peptide Leu-Eth): 0 percentage of control root gro

Compound: tetra-Lys: SEQ ID NO:5 (KKKK)
- growth on peptide (PB1X-9B (pPTF4) [1]): -
- growth on peptide (PB1X-9B [2]): -
- growth on peptide (PB1X-2AΔ (pDTF1)): -
- growth on peptide (in words) (PB1X-9B (pJP9) [3]): showed growth on all peptides except
- growth on peptide (PB1X-9B (pJP9) [3]): -

Compound: Lys-Ala-Ala: tripeptide growth substrate (KAA)
- growth on peptide (PB1X-9B (pPTF4) [1]): +
- growth on peptide (PB1X-9B [2]): -
- growth on peptide (PB1X-2AΔ (pDTF1)): +
- growth on peptide (PB1X-9B (pJP9) [3]): +

Compound: Lys-Leu-Leu-Eth: ethionine-containing peptide of four residues
- sensitivity to toxic peptide [4]: None of the strains tested were sensitive
- diameter of zone of inhibition (PB1X-9B (pJP9) [5]): 0 millimeters
- diameter of zone of inhibition (PB1X-9B (pPTF4) [6]): 0 millimeters
- diameter of zone of inhibition (S288C): 0 millimeters
- diameter of zone of inhibition (PB1X-9B [7]): 0 millimeters

Compound: CC(C)C[C@H](NC(=O)[C@@H](N)CCCCN)C(=O)O [Lys-Leu, L-lysyl-L-leucine] (H-Lys-Leu-OH)
- growth on peptide (PB1X-9B (pPTF4) [1]): +
- growth on peptide (PB1X-9B [2]): -
- growth on peptide (PB1X-9B (pJP9) [3]): +
